Data set [1] relates to DME-related biallelic markers. Nature of the data set: Genotyping by microsequencing: allele frequencies of DME-related biallelic markers in random Caucasian populations. Also noted: species or system human. The note with it: Caucasian FRENCH. The protocol:
The biallelic markers identified as described above were further confirmed and their respective frequencies were determined through microsequencing. Microsequencing was carried out on individual DNA samples obtained as described herein.
Amplification of genomic DNA fragments from individual DNA samples was performed as described in Example 1 using the same set of PCR primers (See Table 17). Microsequencing was carried out on the amplified fragments using specific primers (See Table 16). The preferred primers used in microsequencing had about 19 nucleotides in length and hybridized just upstream of the considered polymorphic base.
The microsequencing reactions were performed as follows: 5 μl of PCR products were added to 5 μl purification mix (2U SAP (Shrimp alkaline phosphate) (Amersham E70092X)); 2U Exonuclease I (Amersham E70073Z); and 1 μl SAP buffer (200 mM Tris-HCl pH8, 100 mM MgCl2) in a microtiter plate. The reaction mixture was incubated 30 minutes at 37° C., and denatured 10 minutes at 94° C. afterwards. To each well was then added 20 μl of microsequencing reaction mixture containing: 10 pmol microsequencing oligonucleotide (19 mers, GENSET, crude synthesis, 5 OD), 1 U Thermosequenase (Amersham E79000G), 1.25 μl Thermosequenase buffer (260 mM Tris HCl pH 9.5, 65 mM MgCl2), and the two appropriate fluorescent ddNTPs complementary to the nucleotides at the polymorphic site corresponding to both polymorphic bases (11.25 nM TAMRA-ddTTP; 16.25 nM ROX-ddCTP; 1.675 nM REG-ddATP; 1.25 nM RHO-ddGTP; Perkin Elmer, Dye Terminator Set 401095). After 4 minutes at 94° C., 20 PCR cycles of 15 sec at 55° C., 5 sec at 72° C., and 10 sec at 94° C. were carried out in a Tetrad PTC-225 thermocycler (MJ Research). The microtiter plate was centrifuged 10 sec at 1500 rpm. The unincorporated dye terminators were removed by precipitation with 19 μl MgCl2 2 mM and 55 μl 100% ethanol. After 15 minute incubation at room temperature, the microtiter plate was centrifuged at 3300 rpm 15 minutes at 4° C. After discarding the supernatants, the microplate was evaporated to dryness under reduced pressure (Speed Vac). Samples were resuspended in 2.5 μl formamide EDTA loading buffer and heated for 2 min at 95° C. 0.8 μl microsequencing reaction were loaded on a 10% (19:1) polyacrylamide sequencing gel. The data were collected by an ABI PRISM 377 DNA sequencer and processed using the GENESCAN software (Perkin Elmer).
The frequencies for both alleles are shown for preferred MGST-II, ME1, UGT1A7 and UGT2B4 markers in Tables 19, 20, 21 and 22, respectively.

Data set [2] deals with serum level of alanine aminotransferase (ALT). Nature of the data set: Clinical study of zileuton: hepatotoxicity monitored by serum ALT level. The data set is classed as in vivo, human. The note with it: asthmatic individuals treated with zileuton. The source says:
In a preferred embodiment, the trait considered was a side-effect upon drug treatment, the study involved two populations derived from a clinical study of the anti-asthmatic drug zileuton. The case population was composed of asthmatic individuals treated with zileuton showing zileuton-associated hepatotoxicity monitored by the serum level of alanine aminotransferase (ALT) and the control population was composed of asthmatic individuals treated with zileuton and having no increased serum level of ALT. Inclusion criteria and association between the biallelic markers of the present invention and zileuton-associated hepatotoxicity are further described below and in Example 4.
Zileuton (Zyflo™) is an active inhibitor of 5-lipoxygenase, the enzyme that catalyzes the formation of leukotrienes from arachidonic acid, indicated for prophylaxis and chronic treatment of asthma. […] In the present invention the ALT test (serum level of alanine aminotransferase) was used, which is considered the most sensitive indicator of liver injury.
Two groups of unrelated individuals were used in this association study in accordance with the invention: the case-control populations. The case population was composed of 89 asthmatic individuals treated with zileuton showing zileuton-associated hepatotoxicity monitored by the serum level of alanine aminotransferase (ALT) and the control population was composed of 208 asthmatic individuals treated with zileuton and having no increased serum ALT level.
The side effect examined in this study was the hepatotoxicity experienced by asthmatic individuals as a result of their treatment with Zileuton as part of a clinical study. […] Hepatotoxicity was monitored by measuring the serum levels of alanine aminotransferase (ALT), which is a sensitive indicator of liver cell damage.
As mentioned above, an association study is more informative if the populations considered present extreme phenotypes. […]

For data set [3], the system named is smooth muscle in peripheral airways. The note with it: both in vitro and in vivo; cited from earlier work.

Data on seven compounds can be found in patent publication US6528260B1, “Biallelic markers related to genes involved in drug metabolism” (Genset, S.A., priority 1999, dated 2003).

For the compound “12-142-321 (DNA GCAGCACAGCGGTCTGCGTGGAARTGAGGCACCGGGTGTGGGCGGGG; allele 24: 12-142-321 : polymorphic base A or G; listed as Homo Sapiens)”, in data set [1], the “allele frequency A” value is recorded as 54.44 and the “allele frequency G” value was found to be 45.56.
As for “12-141-159 (DNA CTCAGTGAGTGAGTTGAAGGGCTYAGTCAACTATTTGTTGATACCAC; allele 24: 12-141-159 : polymorphic base T or C; listed as Homo Sapiens)”, in data set [1], the “allele frequency A” value is reported as 37.5 and the “allele frequency G” value was 62.5.
Turning to `CC(c1cc2ccccc2s1)N(O)C(N)=O` (stereo not shown) [Zileuton, zileuton], the “ALT+ population (at least 3 times the upper limit of normal level of ALT) as share of total asthmatic individuals in the study” value in data set [2] (89 individuals) turned out to be 4%. The “ALT- population (less than 1xULN of ALT) as share of total asthmatic individuals in the study” value in data set [2] (208 individuals) is 35%. For the same compound, the “asthmatic individuals that did not experience Zileuton-associated ALT increase” value in data set [2] (compared to ALT levels prior to zileuton intake) is given as “More than 90%”.
For `CCCCC/C=C\C\C=C/C=C/C=C/[C@@H](SC[C@H](N)C(=O)NCC(=O)O)[C@@H](O)CCCC(=O)O` [LTD4, Leukotriene D4], in data set [3], the “bronchoconstrictor potency relative to histamine” value was 1000 times.
In the case of “12-124-194 (DNA TCTAGCTGGAGCCTGCGCTTGAGYAAAGAGCTGAACAACCAGATTGC; allele 24: 12-124-194 : polymorphic base C or T; listed as Homo Sapiens)”, in data set [1], the “allele frequency C” value stood at 19.41 and the “allele frequency T” value is given as 80.59.
“12-143-453 (DNA TGGAGTGGAGCTTGGTTCTGGCCRTGGGCTGGGGAAGGGAGGTCCGG; allele 24: 12-143-453 : polymorphic base A or G; listed as Homo Sapiens)”: in data set [1], the “allele frequency A” value was 50.61 and the “allele frequency G” value was found to be 49.39.
Consider `CCCCC/C=C\C\C=C/C=C/C=C/[C@@H](SC[C@H](NC(=O)CC[C@H](N)C(=O)O)C(=O)NCC(=O)O)[C@@H](O)CCCC(=O)O` [LTC4, leukotriene C4], for which the “bronchoconstrictor potency relative to histamine” value in data set [3] is on record as 1000 times.
